# According to article PMC5722316, “Synthesis of novel purpurealidin analogs and evaluation of their effect on the cancer-relevant potassium channel KV10.1” (PLoS ONE, 2017):
# Like-named read-outs stand apart in the source and are kept apart here.
# Key:
# hKV10.1a = molecular target: T1, hKV10.1a (Homo sapiens, UniProt O95259); assay: Two-electrode voltage-clamp recordings of KV10.1 currents in Xenopus laevis oocytes; type: cell-based
# T1 construct: expressed in transfected cells; host or cells: Xenopus laevis oocytes injected with cRNA transcribed from the hKV10.1a-pSGEM plasmid
# T1 sequence (O95259 1-962 isoform O95259-2): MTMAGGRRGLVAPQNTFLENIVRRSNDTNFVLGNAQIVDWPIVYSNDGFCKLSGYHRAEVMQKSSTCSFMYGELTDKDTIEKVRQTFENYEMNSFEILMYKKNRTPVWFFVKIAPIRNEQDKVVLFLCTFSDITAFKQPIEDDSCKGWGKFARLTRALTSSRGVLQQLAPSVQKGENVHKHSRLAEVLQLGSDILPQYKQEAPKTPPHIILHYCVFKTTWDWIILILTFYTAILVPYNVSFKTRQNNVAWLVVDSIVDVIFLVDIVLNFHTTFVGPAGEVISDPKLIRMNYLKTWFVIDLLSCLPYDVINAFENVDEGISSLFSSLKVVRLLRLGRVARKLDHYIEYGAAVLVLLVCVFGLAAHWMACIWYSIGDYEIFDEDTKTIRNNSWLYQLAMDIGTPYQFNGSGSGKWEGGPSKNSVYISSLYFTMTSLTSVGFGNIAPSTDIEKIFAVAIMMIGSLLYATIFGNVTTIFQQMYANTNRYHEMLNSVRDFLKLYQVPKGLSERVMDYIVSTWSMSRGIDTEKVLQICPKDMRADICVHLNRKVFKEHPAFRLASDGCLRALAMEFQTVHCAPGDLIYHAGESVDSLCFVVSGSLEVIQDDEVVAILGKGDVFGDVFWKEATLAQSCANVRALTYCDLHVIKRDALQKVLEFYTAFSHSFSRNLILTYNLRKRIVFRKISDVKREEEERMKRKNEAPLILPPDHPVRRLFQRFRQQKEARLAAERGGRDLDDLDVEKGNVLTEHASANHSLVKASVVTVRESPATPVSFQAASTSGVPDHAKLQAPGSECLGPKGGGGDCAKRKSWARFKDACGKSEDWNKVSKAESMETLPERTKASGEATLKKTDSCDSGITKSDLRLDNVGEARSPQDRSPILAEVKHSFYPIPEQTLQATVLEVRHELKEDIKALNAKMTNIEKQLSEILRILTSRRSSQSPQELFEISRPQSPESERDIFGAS
# Description: For the expression of hKV10.1a (GeneBank accession number: NM_002238.3) in Xenopus oocytes, the hKV10.1a-pSGEM plasmid was linearized with SfiI (ThermoFisher Scientific, Waltham, Massachusetts, USA) and transcribed using the T7 mMESSAGE-mMACHINE transcription kit (Ambion®, Carlsbad, California, USA).
# Stage V-VI Xenopus laevis (African clawed frog) oocytes were isolated by partial ovariectomy. Mature female animals were purchased from Nasco (Fort Atkinson, Wisconsin, USA) and were housed in the Aquatic Facility (KU Leuven) in compliance with the regulations of the European Union (EU) concerning the welfare of laboratory animals as declared in Directive 2010/63/EU. The use of Xenopus laevis was approved by the Animal Ethics Committee of the KU Leuven (Project nr. P038/2017). Prior to harvesting the oocytes, the animals were anesthetized by a 15-min submersion in 0.1% tricaine methanesulfonate (pH 7.0). Isolated oocytes were defolliculated with 1.5 mg/mL collagenase.
# Defolliculated oocytes were injected with 4 nL of cRNA at a concentration of 1 ng/nL using a micro-injector (Drummond Scientific®, Broomall, Pennsylvania, USA). The oocytes were incubated in a solution containing (in mM): NaCl, 96; KCl, 2; CaCl2, 1.8; MgCl2, 2 and HEPES, 5 (pH 7.4), supplemented with 50 mg/L gentamycin sulfate.
# Two-electrode voltage-clamp recordings were performed at room temperature (18–22°C) using a Geneclamp 500 amplifier (Molecular Devices, USA) controlled by a pClamp data acquisition system (Axon Instruments®, Union City, California, USA). Whole cell currents from oocytes were recorded 1–4 days after injection. Bath solution composition was (in mM): NaCl, 96; KCl, 2; CaCl2, 1.8; MgCl2, 2 and HEPES, 5 (pH 7.5). Voltage and current electrodes were filled with a 3 M solution of KCl in H2O. Resistances of both electrodes were kept between 0.5 and 1.5 MΩ. The elicited KV10.1 currents were filtered at 1 kHz and sampled at 2 kHz using a four-pole low-pass Bessel filter. Leak subtraction was performed using a -P/4 protocol. KV10.1 currents were evoked by 2-s depolarizing pulses to 0 mV from a holding potential of -90 mV unless otherwise indicated.
# All electrophysiological data are presented as means ± S.E.M of n ≥ 3 independent experiments unless otherwise indicated. All data was analyzed using pClamp Clampfit 10.4 (Molecular Devices®, Downingtown, Pennsylvania, USA) and OriginPro 8 (Originlab®, Northampton, Massachusetts, USA) or GraphPad Prism 5 software (GraphPad Software, Inc., San Diego, California, USA).
# [1] = tested on: SH-SY5Y, DU145, LNCaP, NIH-3T3, MDA-MB-435S and hTERT RPE-1 cell lines; assay: Incucyte Caspase-3/7 apoptosis assay; type: cell-based; conditions: 100 μM, 50 μM and 20 μM; all the cell lines
# Method: Cell lines SH-SY5Y (ACC 209), DU145 (ACC 261), LNCaP (ACC 256) and NIH-3T3 (ACC 59) were purchased from DSMZ (Germany). MDA-MB-435S (HTB 129) and hTERT RPE-1 (CRL 4000) were obtained from ATCC (USA). Cell lines were cultured in their recommended media Supplemented with 10% or 15% FCS (PAA laboratories, Germany) at 37°C in humidified 5% CO2 atmosphere. All media were purchased from ThermoFisher Scientific (Waltham, Massachusetts, United States).
# Cell proliferation, cytotoxicity and apoptosis were assessed in a 96-well microtiter plate by live-cell imaging using an IncuCyte Zoom System (Essen BioScience, UK). Cell proliferation was monitored in terms of cell confluency (%). Cell cytotoxicity was assessed by the CellTox Green Dye assay (Promega, Madison, Wisconsin, USA). The Incucyte Caspase-3/7 apoptosis assay (Essen BioScience, UK) was used to evaluate the effect of compound 5 on the apoptotic pathway. As negative controls media supplemented with 0.05% of DMSO were used.
# Live-cell imaging data were collected from the IncuCyte Zoom software and analyzed using GraphPad Prism 5 software. Proliferation was measured as Phase Object Confluence (%), cytotoxicity and apoptosis were measured as Green Object Count (1/mm^2). All data are represented as mean S.E.M of n = 6 different wells. […]
compound,measurement,setting,value
"COc1ccc(C(=O)NCCc2cc(Br)c(OCCCN(C)C)c(Br)c2)cc1Cl [Compound 5, 3-Chloro-N-[3,5-dibromo-4-[3-(dimethylamino)propoxy]phenethyl]-4-methoxybenzamide]","remaining current, % of the control current",hKV10.1a; 10 μM added during 20-s continuous step to 30 mV,approximately 50%
same,reversibility of KV10.1 inhibition,"hKV10.1a; 10 μM, wash-out",reversible
same,effect on KV10.1 inactivation (two-pulse protocol),"hKV10.1a; 10 μM, 1.5-s prepulse -140 mV to 50 mV, 0.5-s test pulse to 30 mV",an apparent inactivation is induced
same,inhibition at 10 µM,"hKV10.1a; 10 μM, 2-s depolarizing pulses to 0 mV from -90 mV, read-out: KV10.1 current inhibition",51 ± 3%
same,shift of activation curve (ΔV1/2) to more negative potentials,"hKV10.1a; 10 μM, ND96 (2 mM extracellular K+), Boltzmann fit",21.0 ± 1.6 mV
same,half-maximal voltage of activation (V1/2) in presence of compound,"hKV10.1a; 10 μM, ND96 (2 mM extracellular K+), control V1/2 = 23.2 ± 0.4 mV",2.1 ± 0.4 mV
same,slope factor k of activation curve in presence of compound,"hKV10.1a; 10 μM, ND96, control k = 15.5 ± 0.4",13.8 ± 0.3
same,time constant (τ) of wash-out,"hKV10.1a; 10 μM, one phase association equation",~ 20 s
same,exponential time constant (τ) of wash-in,"hKV10.1a; 10 μM, one phase decay equation",5.3 s
same,inhibition at 10 µM,"hKV10.1a; 10 μM, oocyte clamped at -90 mV for 10 minutes, then 2-s pulse to 0 mV, read-out: KV10.1 current inhibition after clamping at -90 mV",53 ± 4%
same,KV10.1 current inhibition,"hKV10.1a; 40 μM, extracellular perfusion, average ± SEM",86.9 ± 1.3%
same,inhibition at 40 µM,"hKV10.1a; 40 μM, extracellular perfusion, average ± SEM, read-out: KV10.1 current inhibition",87 ± 1%
same,Hill coefficient,"hKV10.1a; 8 concentrations 0.04 μM to 80 μM, logistic dose-response fit",1.6 ± 0.3
same,IC50,"hKV10.1a; 8 concentrations 0.04 μM to 80 μM, logistic dose-response fit, read-out: IC50 of KV10.1 current inhibition",7.7 ± 1 µM
same,competition plot with mibefradil,"hKV10.1a; mixtures p*10 μM 5 and (1-p)*10 μM mibefradil, 7 ratios",compete for the same binding site
same,caspase-3/7 activity (induction of the apoptotic pathway),[1],caspase-3/7 activity was detected
